Measured values taken from patent publication US11014920B2, “Factor XIIa inhibitors” (Merck Sharp & Dohme Corp., priority 2016, dated 2021).

target: purified human Factor XIIa (Homo sapiens (Human), UniProt P00748); test: Factor XIIa assay; type: biochemical; details: substrate n-Acetyl-Lys-Pro-Arg-AFC 100 μM, pH 7.4, read-out: FXIIa IC50
Protocol: “FXIIa IC50(nm)” is Human Factor XIIa IC50 (nm).
The effectiveness of a compound of the present invention as an inhibitor of Coagulation Factor XIIa can be determined using a relevant purified serine protease, and an appropriate synthetic substrate. The rate of hydrolysis of the chromogenic or fluorogenic substrate by the relevant serine protease was measured both in the absence and presence of compounds of the present invention. Assays were conducted at room temperature or at 37° C. […] A decrease in the rate of fluorescence change in the presence of inhibitor is indicative of enzyme inhibition. Such methods are known to one skilled in the art. The results of this assay are expressed as the IC50, the inhibitor concentration causing a 50% decrease in Factor XIIa protease activity.
Factor XIIa activity determinations were made in 50 mM HEPES buffer containing 150 mM NaCl, 5 mM CaCl2, and 0.1% PEG 8000 (polyethylene glycol; JT Baker or Fisher Scientific) at pH 7.4. Determinations were made using purified human Factor XIIa at a final concentration of […] (Sekisui Diagnostics) and the synthetic substrate, n-Acetyl-Lys-Pro-Arg-AFC, TFA salt (Sigma # C6608) at a concentration of 100 μM.
Times required to achieve equilibration between enzyme and inhibitor were determined in control experiments. Initial velocities of product formation in the absence (Vo) or presence of inhibitor (Vi) were measured.

purified human Factor XIIa, sequence (P00748 373-615): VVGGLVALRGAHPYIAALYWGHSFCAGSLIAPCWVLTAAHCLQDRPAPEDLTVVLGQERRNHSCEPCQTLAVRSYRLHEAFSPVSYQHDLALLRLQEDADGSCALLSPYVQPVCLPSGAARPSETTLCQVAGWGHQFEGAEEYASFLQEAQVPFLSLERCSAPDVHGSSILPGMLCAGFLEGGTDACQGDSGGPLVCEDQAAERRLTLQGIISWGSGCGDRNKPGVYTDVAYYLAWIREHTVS
purified human Factor XIIa, sequence (P00748 20-372 partner): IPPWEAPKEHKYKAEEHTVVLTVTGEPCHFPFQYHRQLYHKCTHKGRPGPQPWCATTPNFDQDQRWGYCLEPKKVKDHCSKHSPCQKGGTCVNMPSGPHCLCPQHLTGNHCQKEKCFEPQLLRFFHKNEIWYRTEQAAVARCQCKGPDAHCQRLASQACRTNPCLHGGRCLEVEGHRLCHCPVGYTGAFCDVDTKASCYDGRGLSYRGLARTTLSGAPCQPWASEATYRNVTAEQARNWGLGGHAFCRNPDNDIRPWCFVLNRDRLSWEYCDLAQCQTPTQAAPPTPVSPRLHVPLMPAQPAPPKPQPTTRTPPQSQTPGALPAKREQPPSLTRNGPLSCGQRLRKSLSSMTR

Question: For `CN(C1CCCCC1)[C@H](CCCCNS(C)(=O)=O)C(=O)N1CC[C@@H](NC(=O)N2CCC3(CC2)CC3)[C@@H](C(=O)NCc2cccs2)C1` [Compound 30, N-{(3S,4R)-1-[N~2~- cyclohexyl-N~2~- methyl-N~6~- (methylsulfonyl)-D-lysyl]-3-[(thiophen-2-ylmethyl)carbamoyl]pi-peridin-4-yl}-6-azaspiro[2.5]octane-6-carboxamide], which IC50 is on record?
Answer: 50.1 nM

Question: Which IC50 does the source give for `CN(C)CCCC[C@H](C(=O)N1CC[C@@H](NC(=O)N2CCCc3ccccc32)[C@@H](C(=O)NCc2cccs2)C1)N(C)C1CCCCC1` [Compound 27, N-{(3S,4R)-1-(N~2~- cyclohexyl-N~2~,N~6~,N~6~- trimethyl-D-lysyl)-3-[(thiophen-2-ylmethyl)carbamoyl]pi-peridin-4-yl}-3,4-dihydroquinoline-1(2H)-carboxamide] here?
Answer: 110 nM

Question: For `CS(=O)(=O)NCCCC[C@@H](NC1CCCCC1)C(=O)N1CC[C@@H](NC(=O)N2CCC3(CC2)CC3)[C@@H](C(=O)NCc2cccs2)C1` [Compound 23, N-{(3S,4R)-1-[N~2~- cyclohexyl-N~6~- (methylsulfonyl)-D-lysyl]-3-[(thiophen-2-ylmethyl)carbamoyl]pi-peridin-4-yl}-6-azaspiro[2.5]octane-6-carboxamide], which IC50 is on record?
Answer: 52.4 nM

Question: For `NCCCC[C@@H](NC1CCCCC1)C(=O)N1CC[C@@H](NC(=O)N2CCC3(CC2)CC3)[C@@H](C(=O)NCc2cccs2)C1` [Compound 11, N-{(3S,4R)-1-(N~2~- cyclohexyl-D-lysyl)-3-[(thiophen-2-ylmethyl)carbamoyl]pi-peridin-4-yl}-6-azaspiro[2.5]octane-6-carboxamide], which IC50 is on record?
Answer: 71.6 nM

Question: `CN(C)CCCC[C@@H](NC1CCC2(CC1)CCN(Cc1ccccc1)C2)C(=O)N1CC[C@@H](NC(=O)N2CCC3(CC2)CC3)[C@@H](C(=O)NCc2cccs2)C1` (stereo partly drawn) [Compound 31, N-{(3S,4R)-1-[N~2~- (2-benzyl-2-azaspiro[4.5]dec-8-yl)-N~6~,N~6~-dimethyl-D-lysyl]-3-[(thiophen-2-ylmethyl)carbamoyl]pi-peridin-4-yl}-6-azaspiro[2.5]octane-6-carboxamide] was tested. Which IC50 did it give?
Answer: 1.5 nM

Question: How did the IC50 turn out when `CN(C)CCCC[C@H](C(=O)N1CC[C@@H](NC(=O)c2ccc(F)cc2F)[C@@H](C(=O)NCc2cccs2)C1)N(C)C1CCCCC1` [Compound 7, (3S,4R)-1-(N~2~- cyclohexyl-N~2~,N~6~,N~6~- trimethyl-D-lysyl)-4-{[(2,4-difluoro-phenyl)carbonyl]amino}-N-(thiophen-2-ylmethyl)piperidine-3-carboxamide] was run?
Answer: 18.7 nM

Question: For `O=C(NCc1cccs1)[C@H]1CN(C(=O)[C@@H](CC2CCCCC2)NC2CCCCC2)CC[C@H]1NC(=O)N1CCCC2(CCNC2=O)C1` (stereo partly drawn) [Compound 36, N-((3S,4R)-1-((R)-3-cyclohexyl-2-(cyclohexylamino)pro-panoyl)-3-((thiophen-2-ylmethyl)carbamoyl)pi-peridin-4-yl)-1-oxo-2,7-diazaspiro[4.5]decane-7-carboxamide], which IC50 is on record?
Answer: 428 nM

Question: `CN(C)CCCC[C@H](C(=O)N1CC[C@@H](NC(=O)c2ccc(F)cc2)[C@@H](C(=O)NCc2cccs2)C1)N(C)C1CCCCC1` [Compound 6, (3S,4R)-1-(N~2~- cyclohexyl-N~2~,N~6~,N~6~- trimethyl-D-lysyl)-4-{[(4-fluoro-phenyl)carbonyl]amino}-N-(thiophen-2-ylmethyl)piperidine-3-carboxamide] was tested. Which IC50 did it give?
Answer: 98.3 nM

Question: How did the IC50 turn out when `Cc1ccc(C(=O)N[C@@H]2CCN(C(=O)[C@@H](CCCCN(C)C)N(C)C3CCCCC3)C[C@@H]2C(=O)NCc2cccs2)c(F)c1` [Compound 29, (3S,4R)-1-(N~2~- cyclohexyl-N~2~,N~6~,N~6~- trimethyl-D-lysyl)-4-{[(2-fluoro-4-methyl-phenyl)carbonyl]amino}-N-(thiophen-2-ylmethyl)piperidine-3-carboxamide] was run?
Answer: 37.6 nM

Question: How did the IC50 turn out when `NCCCC[C@@H](NC1CCCCC1)C(=O)N1CC[C@@H](NC(=O)N2CCC3(CC2)CC3)[C@@H](C(=O)NCc2ccccc2)C1` [Compound 13, N-[(3S,4R)-3-(benzylcarbamoyl)-1-(N~2~-cyclohexyl-D-lysyl)piperidin-4-yl]-6-azaspiro[2.5]octane-6-carboxamide] was run?
Answer: 98.3 nM

Question: How did the IC50 turn out when `Cc1cnc(C(=O)N[C@@H]2CCN(C(=O)[C@@H](CC3CCCCC3)NC3CCCCC3)C[C@@H]2C(=O)NCc2ccnc(N)c2)s1` [Compound 4, (3S,4R)-N-[(2-aminopyridin-4-yl)methyl]-1-(N,3-dicyclohexyl-D-alanyl)-4-{[(5-methyl-1,3-thiazol-2-yl)carbonyl]amino}pi-peridine-3-carboxamide] was run?
Answer: 65.1 nM

Question: How did the IC50 turn out when `O=C(NCc1cccs1)[C@H]1CN(C(=O)[C@@H](CCCCN2CCCS2(=O)=O)NC2CCCCC2)CC[C@H]1NC(=O)N1CCC2(CC1)CC2` [Compound 17, N-{(3S,4R)-1-[N-cyclohexyl-6-(1,1-dioxidoisothiazolidin-2-yl)-D-norleucyl]-3-[(thiophen-2-ylmethyl)carbamoyl]pi-peridin-4-yl}-6-azaspiro[2.5]octane-6-carboxamide] was run?
Answer: 11.5 nM
